Assay results published in PMC5773577, “Novel Miniature Membrane Active Lipopeptidomimetics against Planktonic and Biofilm Embedded Methicillin-Resistant Staphylococcus aureus” (Scientific Reports, 2018).
Converted amounts (≈) assume the structure as drawn. Residues, ends and D or L forms follow the SMILES beside them. No end group written: not given here.

Experiments:
S. aureus (ISP479R) = format: cell-based, Staphylococcus aureus; conditions: MHB, 2–5 × 10^5 CFU/mL, 16–18 h, 37 °C, OD600
Protocol: (§1) The antibacterial activity was evaluated as MIC using slight modifications to a serial broth micro dilution method as reported previously[66],[67]. Briefly, to each treatment well of the 96-well plate (Corning Incorporated, USA) 10 μL of peptidomimetic/antibiotic was added and subsequently diluted serial 2-fold in 0.2% BSA (in 0.01% acetic acid). Then to each well of the first 11 columns 100 μL of mid-log phase bacterial suspension in MHB medium was added to get 2–5 × 10^5 CFU/mL. Cultures without test peptidomimetics/antibiotics were used as growth control. Uninoculated MHB medium was used as negative control. The microtitre plates were incubated overnight with agitation (180 rpm) at 37 °C. After 16–18 h incubation, absorbance was read at 600 nm using an ELISA plate reader (Molecular Devices, Sunnyvale, CA, USA). The experiments were carried out in duplicate on at least three different days.

MRSA (ATCC 33591) = test: microbe, parasite or virus in culture; format: cell-based, Staphylococcus aureus; conditions: MHB, 2–5 × 10^5 CFU/mL, 16–18 h, 37 °C; for Minimum inhibitory concentration, MIC: OD600
Protocol: as §1

S. aureus (ATCC 25923) = test: microbe, parasite or virus in culture; format: cell-based, Staphylococcus aureus; conditions: 2–5 × 10^5 CFU/mL, 16–18 h, 37 °C
Protocol: as §1

S. aureus (ATCC 29213) = test: microbe, parasite or virus in culture; format: cell-based, Staphylococcus aureus; conditions: 2–5 × 10^5 CFU/mL, 16–18 h, 37 °C, OD600, duplicate, at least three days
Protocol: as §1

S. aureus (ISP479C) = test: microbe, parasite or virus in culture; format: cell-based, Staphylococcus aureus; conditions: MHB, 2–5 × 10^5 CFU/mL, 16–18 h, 37 °C
Protocol: as §1

[1] = test system: mouse red blood cells (RBCs); test: Hemolysis assay; format: cell-based; conditions: mouse RBC, up to 250 μg/mL, 1 h, 37 °C, PBS pH 7.4; 0.1% Triton X-100 = 100%; data not shown
Protocol: For the experiment, a previously defined procedure was used with slight modifications[67],[68]. Briefly, blood was withdrawn from mice on the day of the experiment. After washing red blood cells (RBC) twice with phosphate buffer saline (PBS: 35 mM sodium phosphate, 150 mM NaCl, pH 7.4), a 4% v/v suspension of RBC was prepared in the same buffer. In a 96-well plate, serial two-fold dilutions of desired concentrations of peptidomimetics (in PBS) were prepared (100 μL) in duplicate. To each well 100 μL of 4% v/v RBC suspension was added. The plates were incubated at 37 °C for 1 h. After 1 h, the plates were centrifuged at 1500 rpm for 10 min and 20 μL of the supernatant was transferred to a fresh 96-well plate containing 80 μL PBS. The hemoglobin release was quantified by measuring OD414 in an ELISA plate reader (Molecular Devices, Sunnyvale, CA, USA). Hemoglobin release from 0.1% Triton X-100 treated RBC was set as 100% lysis (Amax) while as negative control RBC suspended in PBS alone was used (APBS). Percentage hemolysis was calculated using the following equation:1 %hemolysis=[(Asample−APBS)/(Amax−APBS)]×100

MRSA (ATCC 43300) = test: microbe, parasite or virus in culture; format: cell-based, Staphylococcus aureus; conditions: Staphylococcus aureus, MHB, 2–5 × 10^5 CFU/mL, 16–18 h, 37 °C, OD600, read-out: Minimum inhibitory concentration, MIC
Protocol: as §1

[2] = test system: Methicillin-resistant S. epidermidis (ATCC 35984); test: microbe, parasite or virus in culture; format: cell-based, Staphylococcus epidermidis; conditions: Staphylococcus epidermidis, ATCC 35984 / MRSE; MRSE ATCC 35984; MHB, 2–5 × 10^5 CFU/mL, 16–18 h, 37 °C, OD600; read-out: Minimum inhibitory concentration, MIC
Protocol: as §1

E. faecalis (ATCC 29212) = test: microbe, parasite or virus in culture; format: cell-based; conditions: Enterococcus faecalis, ATCC29212, MHB, 2–5 × 10^5 CFU/mL, 16–18 h, 37 °C, read-out: Minimum inhibitory concentration, MIC
Protocol: as §1

[3] = test system: Vancomycin-resistant E. faecium (ATCC 700221); test: microbe, parasite or virus in culture; format: cell-based; conditions: Enterococcus faecium, ATCC700221, MHB, 2–5 × 10^5 CFU/mL, 16–18 h, 37 °C, read-out: Minimum inhibitory concentration, MIC
Protocol: as §1

[4] = test system: E. faecium (E-447), clinical isolate of vancomycin-resistant E. faecium; test: organism not typed; format: cell-based, Enterococcus faecium; conditions: read-out: Minimum inhibitory concentration, MIC
Protocol: as §1

[5] = test system: E. faecium (E-7846), clinical isolate of vancomycin-resistant E. faecium; test: organism not typed; format: cell-based, Enterococcus faecium; conditions: read-out: Minimum inhibitory concentration, MIC
Protocol: as §1

MRSA ATCC 33591 [6] = test: Membrane depolarization assay, DiSC3(5); format: cell-based, Staphylococcus aureus; conditions: 2 min, DiSC3(5), HEPES-glucose buffer pH 7.2, 37 °C, mean ± S.D., two days
Protocol: The cytoplasmic membrane depolarization in MRSA ATCC 33591 strain was measured using membrane potential sensitive dye 3,3′-dipropylthiacarbocyanine iodide (DiSC3(5)) with a protocol described previously with slight modifications[23],[48]. Briefly, exponential phase cells grown in MHB were harvested by centrifugation, washed and re-suspended in respiration buffer (5 mM HEPES, 20 mM glucose, pH 7.2) to 2.5 × 10^6 CFU/mL. The cells were divided into 1 mL aliquots and incubated with 3.6 μM of DiSC3(5) (in dark) for 30 min to get steady baseline fluorescence intensity. The dye-loaded cells (800 μL) were then treated with peptidomimetics at respective 1× and 4× MIC concentrations (2–20 μL) and consequent fluorescence increase after 2 min of addition was measured in a Shimadzu RF-5301 PC spectrofluorimeter. As controls IL, melittin and VAN were also assayed under identical conditions. The samples were excited at 622 nm and emission was recorded between 650–700 nm with 3 nm slit width for both excitation and emission. The temperature was maintained at 37 °C throughout the experiment. Depolarization kinetics was measured at 4 × MIC of test agents for 5 min. The experiment was repeated on two different days and for Fig. 3 panel (A) mean ± S.D. data for % depolarization relative to melittin control (10 μM) set as 100% is presented here. For panel (B) representative data is shown here. The viability of dye-loaded cells corresponding to depolarization experiment at 4 × MIC concentration was also measured by plating the diluted aliquots onto BHI agar plates.

MRSA ATCC 33591 [7] = test: Membrane permeabilization assay, calcein-AM dye release, flow cytometry; format: cell-based, Staphylococcus aureus; conditions: PBS, 37 °C, mean ± S.D., two days
Protocol: To assess the effect of designed peptidomimetics on membrane integrity of MRSA ATCC 33591 strain a calcein-AM dye release experiment was performed using the protocol described previously with slight modifications. Briefly, exponential phase MRSA ATCC 33591 culture was prepared in MHB medium as mentioned earlier and adjusted to OD600 = 1 (~10^9 CFU/mL) in PBS (10 mM sodium phosphate, 150 mM NaCl, pH 7.4). Thereafter, the cells were incubated at 37 °C with calcein-AM (2 μg/mL) in 10% MHB medium for 2 h. The calcein-loaded cells were washed once and re-suspended in PBS to OD600 = 0.5 (~10^8 CFU/mL). […] Subsequently, calcein fluorescence was measured via flow cytometry (Becton Dickinson (BD) FACS verse, San Jose, CA) with excitation and emission wavelengths of 488 nm and 530 ± 30 nm, respectively. For each sample, 10,000 cells were acquired. As a positive control, melittin (10 μM) was assayed under identical conditions. The experiment was repeated on two different days and mean ± S.D. is presented here. Corresponding to leakage a viability assay at 4 × MIC of respective test agents was also performed by incubating samples for 2 h at 37 °C and plating the diluted aliquots on BHI agar plates.

MRSA ATCC 33591 [8] = test: Cell viability corresponding to calcein leakage experiment; format: cell-based, Staphylococcus aureus; conditions: calcein-loaded cells in PBS, 4 × MIC (melittin 10 μM), 2 h incubation
Protocol: To assess the effect of designed peptidomimetics on membrane integrity of MRSA ATCC 33591 strain a calcein-AM dye release experiment was performed using the protocol described previously with slight modifications[51]. Briefly, exponential phase MRSA ATCC 33591 culture was prepared in MHB medium as mentioned earlier and adjusted to OD600 = 1 (~10^9 CFU/mL) in PBS (10 mM sodium phosphate, 150 mM NaCl, pH 7.4). Thereafter, the cells were incubated at 37 °C with calcein-AM (2 μg/mL) in 10% MHB medium for 2 h. The calcein-loaded cells were washed once and re-suspended in PBS to OD600 = 0.5 (~10^8 CFU/mL). The cells were diluted 100× in PBS to get 3–5 × 10^5 CFU/mL and were incubated with different concentrations of test agents at 37 °C in dark for 2 h. Subsequently, calcein fluorescence was measured via flow cytometry (Becton Dickinson (BD) FACS verse, San Jose, CA) with excitation and emission wavelengths of 488 nm and 530 ± 30 nm, respectively. For each sample, 10,000 cells were acquired. As a positive control, melittin (10 μM) was assayed under identical conditions. The experiment was repeated on two different days and mean ± S.D. is presented here. […]
agar plates. The plates were incubated at 37 °C for 16-18 h and colonies were counted. […]

[9] = Staphylococcus aureus, OD600, read-out: Minimum inhibitory concentration, MIC

For N=C(N)NCCC[C@H](NC(=O)C(Cc1c(F)c(F)c(F)c(F)c1F)NC(=O)[C@H](CCCNC(=N)N)NC(=O)[C@@H](N)Cc1c[nH]c2ccccc12)C(=O)N[C@@H](Cc1c[nH]c2ccccc12)C(N)=O (stereo partly drawn) [S-4, Trp-Arg-(F5-Phe propionic acid)-Arg-Trp-CONH2] (HELM PEPTIDE1{W.R.[O=C(C(Cc1c(F)c(F)c(F)c(F)c1F)N[*:1])[*:2]].R.W.[am]}$$$$V2.0), the “Minimum inhibitory concentration, MIC” value (S. aureus (ISP479R)) was 45.4 µg/mL (≈ 48.4 µM), the “Minimum inhibitory concentration, MIC” value (MRSA (ATCC 33591)) was 45.4 µg/mL (≈ 48.4 µM) and the “Minimum inhibitory concentration, MIC” value (S. aureus (ATCC 25923); MHB, OD600) was 45.4 µg/mL (≈ 48.4 µM). The “Minimum inhibitory concentration, MIC” value (S. aureus (ATCC 29213); MHB) was 45.4 µg/mL (≈ 48.4 µM), the “Minimum inhibitory concentration, MIC” value (S. aureus (ISP479C); OD600) was 45.4 µg/mL (≈ 48.4 µM) and the “% hemolysis” value [1] was less than 5%.

Molecule Cc1onc(-c2ccccc2)c1C(=O)N[C@@H]1C(=O)N2[C@@H]1SC(C)(C)[C@@H]2C(=O)O [OXA, oxacillin] has an MIC (MRSA (ATCC 33591); [9]) of 56.8 µg/mL (≈ 141 µM), an MIC (MRSA (ATCC 43300)) of 56.8 µg/mL (≈ 141 µM) and an MIC (S. aureus (ATCC 25923); Staphylococcus aureus, ATCC25923, MHB, OD600, read-out: Minimum inhibitory concentration, MIC) of less than 0.3 µg/mL. For the same molecule, the MIC (S. aureus (ATCC 29213); Staphylococcus aureus, ATCC29213, MHB, read-out: Minimum inhibitory concentration, MIC) was less than 0.3 µg/mL, the MIC (S. aureus (ISP479C); [9]) was 0.3 µg/mL (≈ 0.747 µM) and the MIC [2] was greater than 45.4 µg/mL. It also gave an MIC (E. faecalis (ATCC 29212)) of 5.6 µg/mL (≈ 13.9 µM), an MIC [3] greater than 45.4 µg/mL and an MIC [4] greater than 233 µg/mL. The MIC [5] was greater than 233 µg/mL.

In the case of “indolicidin (ILPWKWPWWPWRR; ends and bridges not checked; UniProt P33046 131-143, looked up) [naturally occurring Trp-Arg rich CAMP used as control]”, the “Minimum inhibitory concentration, MIC” value (MRSA (ATCC 33591)) is reported as 3.2 µg/mL, the “% depolarization relative to melittin control (10 μM, set as 100%)” value (MRSA ATCC 33591 [6]; at 4 × MIC) is reported as 87.4 ± 5.5% and the “% depolarization relative to melittin control (10 μM, set as 100%)” value (MRSA ATCC 33591 [6]; at MIC) is reported as 48.3 ± 6.3%. For the same molecule, the “% calcein leakage” value (MRSA ATCC 33591 [7]; at 4 × MIC, 2 min incubation) was 42.2 ± 27.9%, the “% calcein leakage” value (MRSA ATCC 33591 [7]; at 4 × MIC, 2 h incubation) was 50.6 ± 23.6% and the “% calcein leakage” value (MRSA ATCC 33591 [7]; at MIC, 2 min incubation) was 6.2 ± 8.8%. The “% calcein leakage” value (MRSA ATCC 33591 [7]; at MIC, 2 h incubation) was 2.7 ± 3.9% and the “log reduction in viability” value (MRSA ATCC 33591 [8]) was 1.8 log.
